These results are taken from patent publication US9623031B2, “Compositions, methods and kits for treating cancer” (priority 2011, dated 2017).

Entries after “also recorded” stand apart in the source; their conditions may differ.

For assay [1], the system named is Friend virus (FV)-induced erythroleukemia. Briefly: FV-induced erythroleukemia in FV-infected mice, intraperitoneal treatment. In kind it is in vivo, mouse. From the text: FV-induced erythroleukemia and production of FV leukemia stem cells (FV-LSCs): BALB/c mice were infected with FV as previously described (Subramanian A et al., J Virol. 2008; 82:382-393; Harandi O F et al., J Clin Invest. 2010; 120:4507-4519). On day 14 after infection, spleens were isolated and a single cell suspension of spleen cells was generated. The cells were filtered through a 70 μm sterile filter and flow-through cells were resuspended in RBC lysis buffer followed by centrifugation. Leukemia stem cells were isolated by FACS. Spleen cells were labeled with anti-Kit, Sca1 (BioLegend, San Diego, Calif.) and M34 antibodies. M34 is a monoclonal antibody that recognizes the envelope protein of SFFV (Chesebro B et al., Virology. 1981; 112:131-144) and was used as previously described (Subramanian A et al., J Virol. 2008; 82:382-393). As indicated M34^+Kit^+Sca1^+ cells were cultured in Methocult media (Stem Cell Technologies Vancouver BC) M3334 supplemented with 200 ng/ml Sonic Hedgehog (Shh), 15 ng/ml bone morphogenetic protein-4 (BMP4) (both from R&D Systems Minneapolis, Minn.), and 50 ng/ml stem cell factor (SCF; Peprotech). For CFU-FV assays, cells were plated in methylcellulose media containing fetal calf serum, but lacking added growth factors as previously described (Mager D L et al., Proc Natl Acad Sci USA. 1981; 78:1703-1707).
Complete blood counts of mice treated with Δ^12-PGJ3 (0.05 mg/kg) were examined. There is no difference in treated mice and untransplanted control mice in terms of white blood cell counts, red blood cell counts or platelet counts. Changes in hematological parameters in FV-infected mice upon treatment with CyPGs were examined. FV-infected Balb/c mice were treated with Δ^12-PGJ3 (0.05 mg/kg) intraperitoneally for 7 d following which the mice were sacrificed and hematological parameters were analyzed on an Advia blood analyzer. FV-infected Δ^12-PGJ3 treated mice were compared to infected vehicle controls. N=5 per group, all data are means±s.e.m. *P<0.05. 3% w/v hydroxypropyl-3-cyclodextrin was used as a vehicle in in vivo experiments. Spleen sizes of FV-infected mice that were treated with either vehicle, 9,10-dihydro-15d-PGJ2 (0.05 mg/kg), or 15d-PGJ2 (0.05 mg/kg) were examined; N=3 pre group. Hematological parameters of Balb/c uninfected, infected, and 15d-PGJ2 treated mice were examined. N=5 per group. All data were means±s.e.m. *P<0.05.
FV-LSC were targeted by 15d-PGJ2 in the spleen of FV-infected mice. FV-infected mice were treated with 15d-PGJ2 or 9,10-dihydro-15d-PGJ2 at 0.05 mg/kg for 7 d. The splenic LSC (M34^+Sca1^+Kit^+) cells were analyzed by flow cytometry on day 14 post infection. […] Uninfected and infected vehicle controls were used for comparison. N=3; *P<0.05. […] The colonies were counted 10-14 days after plating. N=3 mice per group, *p<0.05.

In assay [2] the test system is BCR-ABL^+LSC (Kit^+Sca1^+Lin^−GFP^+). Briefly: Apoptosis of BCR-ABL+ LSCs treated ex vivo (annexin V, flow cytometry). In kind it is cell-based, mouse. As to conditions: for apoptosis of Sca1+GFP+Kit+ BCR-ABL+LSC from spleen: 25-1000 nM, 36 h. The protocol: Apoptosis. Apoptosis of LSCs was performed using annexin V as described below in Supplementary Information and Methods.
Apoptosis. The LSCs were diluted in DMEM, resuspended using a 16-gauge needle, and collected by centrifugation. 1×10^5 cells were resuspended in 200 μl of binding buffer (0.1 M HEPES with 1.4 M NaCl, 25 mM CaCl2, pH 7.4). Annexin V FITC (BD Biosciences) was incubated with cells for 15 min on ice followed by flow cytometric analysis.
The ability of CyPGs derived from arachidonic acid (2 series PGs) to induce apoptosis was tested in cultures of LSCs from FV infected mice and in the murine CML model. […] 15d-PGJ2 is known as a PPAPγ agonist. […] In FIG. 7C Δ^12-PGJ3, 15d-PGJ2 or 9,10-dihydro-15d-PGJ2 are tested for their ability to induce apoptosis in a murine CML model. […] The cells were stained with annexin V-FITC and analyzed by flow cytometry. Representative of N=4. […] Inset: Effect of rosiglitazone on the apoptosis of LSC. Rosiglitazone (0.1-2.0 μM) was incubated with LSC in the culture media for 36 h as described earlier and the cells were subjected to annexin-V staining followed by flow cytometry. […] LSC were treated ex vivo with indicated concentrations of each compound for 36 h.
Following 36 h of incubation, apoptotic cells were quantified by annexin V staining. […] In a related study to address if Δ^12-PGJ3 treatment would cause any degranulation of granulocytes, a rat basophilic cell line ([…]) was treated with 100 nM Δ^12-PGJ3 and the degranulation was followed by quantitating the release of histamine and a second marker of degranulation, hexoseaminidase.
In this experiment, 500,000 BCR-ABL+ LSCs were plated in a 24-well plate followed and were treated with 25 nM PGD2Me or 100 nM ZK118182 (both are agonists of DP) for 24 h. GFP^+ cells were analyzed by flow cytometry. These agonists were purchased from Cayman Chemicals, MI.
(In flow cytometry, cells or beads pass a laser one at a time.)

Assay [3] deals with FV-LSCs (M34^+Kit^+Sca1^+). Briefly: Apoptosis of FV-LSCs treated ex vivo (annexin V, flow cytometry). Format: cell-based, mouse. The conditions noted are these: 25 nM, 36 h; for apoptosis of FV-LSCs: annexin V.
Protocol: On day 14 after infection, spleens were isolated and a single cell suspension of spleen cells was generated. The cells were filtered through a 70 μm sterile filter and flow-through cells were resuspended in RBC lysis buffer followed by centrifugation. Leukemia stem cells were isolated by FACS. Spleen cells were labeled with anti-Kit, Sca1 (BioLegend, San Diego, Calif.) and M34 antibodies. […] As indicated M34^+Kit^+Sca1^+ cells were cultured in Methocult media (Stem Cell Technologies Vancouver BC) M3334 supplemented with 200 ng/ml Sonic Hedgehog (Shh), 15 ng/ml bone morphogenetic protein-4 (BMP4) (both from R&D Systems Minneapolis, Minn.), and 50 ng/ml stem cell factor (SCF; Peprotech).
The cells were stained with annexin V-FITC and analyzed by flow cytometry. […] Means±s.e.m. *P<0.001 compared to vehicle (PBS). […] Inset: Effect of rosiglitazone on the apoptosis of LSC. Rosiglitazone (0.1-2.0 μM) was incubated with LSC in the culture media for 36 h as described earlier and the cells were subjected to annexin-V staining followed by flow cytometry. […] LSC were treated ex vivo with indicated concentrations of each compound for 36 h. Mean±s.e.m. shown *P<0.001.
Assay [4] concerns FV-LSCs transplanted into BALB/c-Stk^−/− mice.
Protocol: Transplant of FV-LSCs into BALB/c-Stk^−/− mice: FV-LSCs were generated as described above. 2.5×10^5 FV-LSCs were transplanted into BALB/c-Stk^−/− mice by retro-orbital injection. Six weeks after transplant the mice were treated with CyPGs or vehicle control as indicated in the text.
Treatment of Mice with PGs: Mice with FV-induced erythroleukemia or MIGR-BCR-ABL induced CML were treated on the indicated days with CyPGs. Mice were treated with a daily intraperitoneal injection of Δ^12-PGJ3 (0.01-0.1 mg/kg), 15d-PGJ2 (0.1 mg/kg), or 9,10-dihydro-15d-PGJ2 (0.1 mg/kg) for 7 days. All three compounds were formulated with hydroxypropyl-β-cyclodextrin (30% w/v; Sigma; vehicle control).
Stk^−/− mice are resistant to Friend virus infection so the leukemia developed by the transplanted mice is result of the transplanted LSCs and not FV infection. […] LSCs sorted from the spleens of FV-infected mice were transplanted into Stk^−/− mice (on a Balb/c background). After 6 weeks such mice were treated daily for 1 week with vehicle (hydroxypropyl-β-cyclodextrin), 15d-PGJ2 (0.05 mg/kg), or 9,10-dihydro-15d-PGJ2 (0.05 mg/kg) by intraperitoneal injection. The mice were sacrificed 51 days post LSC transplantation for analysis. An analysis of spleens of mice comparing splenomegaly in vehicle, 15d-PGJ2, or 9,10-dihydro-15d-PGJ2 treated transplanted mice was performed. Spleen weight compared to control (untransplanted mice) after treatment and WBC counts in the peripheral blood of the mice after treatment were examined, and a flow cytometric analysis of the spleen of untransplanted and LSC transplanted mice after treatment was performed. All data were mean±s.e.m. *p<0.05 compared to control or 9,10-dihydro-15d-PGJ2 treated groups. N=5 per group.
Assay [5] has as its system LSCs. Briefly: Apoptosis of LSCs as summarised in the discussion (model not specified or both models). Format: cell-based, mouse. As to conditions: FV-induced leukemia and BCR-ABL+ retrovirus-based murine CML model.
The subject of assay [6] is p53. Briefly: p53 expression in FV-LSCs treated ex vivo (RT-PCR, nuclear extracts). Format: cell-based, mouse.
In assay [7] the test system is murine erythroleukemia (MEL) cells. Briefly: MEL cell apoptosis and viability (MTT, CCK-8). The conditions noted are these: anti-leukemic drugs 1 μM, nutlin 5 μM, 24 h, MTT/CCK-8. In kind it is cell-based, mouse. The method, then: Cell culture. Murine erythroleukemia (MEL) cells were cultured in DMEM with 10% FBS. In order to examine the production 3-series PGs, BALB/c-derived RAW264.7 macrophage-like cells (ATCC) were cultured in DMEM containing 5% FBS, 250 nM sodium selenite, and 50 μM EPA (as BSA conjugate) for 72 h followed by stimulation with E. coli endotoxin lipopolysaccharide (LPS; Serotype 0111B4; 50 ng/ml) for 30 min. The cells were cultured in fresh DMEM for an additional 24-144 h. Cells cultured with cell culture-grade fatty acid free BSA (Sigma Aldrich) served as a control. Culture media was withdrawn at various times and analyzed for 3-series PGs as described below. Total RNA was isolated from cells or tissues using Trizol reagent as per the instructions of the supplier (Invitrogen, Carlsbad, Calif.) and cDNA was prepared using a High Capacity cDNA Reverse Transcriptase kit (Applied Biosystems, Foster City, Calif.). Semiquantitative RT-PCR for p53 and β-actin was performed with primers as described in Supplementary Methods. Nuclear and cytoplasmic protein extracts of LSCs were prepared using standard methods previously described (Vunta H et al., J Biol Chem. 2007; 282:17964-17973).
Cell viability studies. MEL cells were cultured in DMEM containing 10% FBS and treated with various commonly used anti-leukemic drugs such as daunorubicin (DNR), mitoxantrone (MIT), and cytarabine (CYT) at a final concentration […] for 24 h. […] After 24 h of drug treatment, cell proliferation was measured by MTT assay with CCK-8 kit from Dojindo Molecular Technologies, Inc. (Gaithersburg, Md.). All viability values reported are relative to untreated cells (UT) that was designated to be 100%. Results represent the mean±SEM of three independent observations.
In order to address whether MEL cells are resistant in general to chemotherapy agents, we tested whether MEL cells can be killed by apoptosis when treated with standard anti-leukemia drugs. Treatment with various commonly used anti-leukemic drugs such as daunorubicin (DNR), mitoxantrone (MIT), and cytarabine (CYT) at a final concentration 1 μM for 24 h. […] After 24 h of drug treatment, cell proliferation was measured by MTT assay with CCK-8 kit from Dojindo Molecular Technologies, Inc. (Gaithersburg, Md.). […] The results represent the mean±SEM of three independent observations.

Turning to `CCCCC/C=C/C=C1/C(=O)C=C[C@@H]1C/C=C\CCCC(=O)O` [15d-PGJ2, reference compound], the “LSCs (Sca1+Kit+M34+) in the spleen” value in assay [1] (0.05 mg/kg i.p. 7 d, flow cytometry day 14 post infection) is “significant decrease in LSC numbers; also recorded: Identical results”. Further, the “total leukocyte and reticulocyte counts” value in assay [1] (i.p. 7 days) was “decreased to normal levels”. The “Friend virus viral replication” value in assay [1] (mouse, in vivo) is “does not affect Friend virus viral replication”. Also, in assay [1] (spleen cells of treated mice plated without growth factors), the CFU-FV colony formation result is “significantly decreased the number of transformed leukemia cells”. Besides, the “apoptosis of Sca1+GFP+Kit+ BCR-ABL+LSC from spleen” value in assay [2] was “active; also recorded: significantly increased their apoptosis”. Moreover, the “apoptosis of FV-LSCs” value in assay [3] was “able to induce apoptosis; also recorded: Responses similar to Δ^12-PGJ3”. In addition, the “hematocrit, WBC counts and reticulocyte counts” value in assay [4] (FV-induced leukemia, FIG. 3C) is “significantly decreased”. Also, the “LSCs (M34+Sca1+Kit+) in the spleen” value in assay [4] (flow cytometry after 1 week i.p. treatment) is “eradication of FV LSCs in the spleen and resolution of the diseases”.
With `CC/C=C\C/C=C/C=C1/C(=O)C=C[C@@H]1C/C=C\CCCC(=O)O` [15d-PGJ3, reference compound], the “increase in apoptosis of FV-LSCs” value in assay [3] is around 75%. The “targeting of LSCs for apoptosis” value in assay [5] is recorded as “targeted LSCs for apoptosis”.
As to `O=C(NC(NC(=S)Nc1ccc(F)c([N+](=O)[O-])c1)C(Cl)(Cl)Cl)C(c1ccccc1)c1ccccc1` (stereo not shown) [CGK-733], the “block of Δ^12-PGJ3-dependent p53 expression by ATM inhibitors” value in assay [6] (preincubation, then Δ^12-PGJ3) is “blocked the CyPG-dependent expression of p53”.
Take `CS(=O)(=O)c1cc(F)cc2c3c(n(Cc4ccc(Cl)cc4)c12)[C@@H](CC(=O)O)CC3` [MK0824]: in assay [2] (antagonist 10 nM, 2 h pretreatment, then 25 nM Δ^12-PGJ3, 36 h), the “inhibition of Δ^12-PGJ3-induced apoptosis by DP antagonist” value is on record as “inhibited”.
In the case of `CCCCC[C@H](O)/C=C/[C@H]1C(=O)C[C@H](O)[C@@H]1C/C=C\CCCC(=O)OC` [PGD2Me, 9α,15S-dihydroxy-11-oxo-prosta-5Z,13E-dien-1-oic acid, methyl ester], the “apoptosis of BCR-ABL+ LSCs by synthetic DP agonists (GFP+ cells)” value in assay [2] (25 nM PGD2Me or 100 nM ZK118182, 24 h) was “can induce apoptosis of LSCs”.
As to `CCCCC[C@H](O)/C=C/[C@H]1C(=O)C=C[C@@H]1C/C=C\CCCC(=O)O` [PGJ2], in assay [3], the “apoptosis of FV-LSCs” value is given as “largely ineffective”. Also, in assay [6] (10 or 25 nM, 12 h), the “p53 expression at transcript level” value is “only a minor degree”. In assay [6] (preincubated at 37° C. for 42 h before adding LSCs), the “p53 expression after preincubation of compound with media” value was “increased expression of p53”.
As for `CC/C=C\C[C@H](O)/C=C/[C@H]1C(=O)C=C[C@@H]1C/C=C\CCCC(=O)O` [PGJ3, reference compound], the “increase in apoptosis of FV-LSCs” value in assay [3] turned out to be 2 fold. Also, the “targeting of LSCs for apoptosis” value in assay [5] is listed as “ineffective”.
For the compound `Nc1ccn([C@@H]2O[C@H](CO)[C@@H](O)[C@@H]2O)c(=O)n1` [cytarabine], the “sensitivity of MEL cells to drugs” value in assay [7] is listed as “caused significant apoptosis; also recorded: exhibited sensitivity”.
The same measure, in the same setting: next, `COc1cccc2c1C(=O)c1c(O)c3c(c(O)c1C2=O)C[C@@](O)(C(C)=O)C[C@@H]3O[C@H]1C[C@H](N)[C@H](O)[C@H](C)O1` [daunorubicin]: “caused significant apoptosis; also recorded: exhibited sensitivity”.
For the compound `O=C1c2c(O)ccc(O)c2C(=O)c2c(NCCNCCO)ccc(NCCNCCO)c21` [mitoxantrone], the “sensitivity of MEL cells to drugs” value in assay [7] is “caused significant apoptosis; also recorded: exhibited sensitivity”.
Regarding `COc1ccc(C2=NC(c3ccc(Cl)cc3)C(c3ccc(Cl)cc3)N2C(=O)N2CCNC(=O)C2)c(OC(C)C)c1` (stereo not shown) [nutlin], the “sensitivity of MEL cells to drugs” value in assay [7] is “not”; in assay [7] (listed as Nutlin), “lack of activation of p53 and apoptosis”.
`CCCCC[C@H](O)C/C=C1/C(=O)C=C[C@@H]1C/C=C\CCCC(=O)O` [Δ^12-PGJ2]: the “apoptosis of Sca1+GFP+Kit+ BCR-ABL+LSC from spleen” value in assay [2] is given as “active”. For the same compound, in assay [3], the “apoptosis of FV-LSCs” value was “able to induce apoptosis; also recorded: Responses similar to Δ^12-PGJ3”.
